What was measured:
[1] = Solubility and loading of PTX; assay type: physicochemical
Experimental: The PEG-HCCs were purified by sequential dialysis in DMF and water. This was followed by passage through a PD-10 desalting column to remove any coordinated metals or unbound PEG. […] The particles were water soluble. See Berlin et al. for AFM data.
PEG-HCCs were loaded with PTX by dropwise addition of PTX in methanol (5 mg in 1 mL) to a rapidly stirring solution of PEG-HCCs in water (100 mg/L concentration of core HCCs, 5 mL). Next, the solution was bath-sonicated, concentrated to 3 mL by rotary evaporation (to remove the methanol), and then diluted back to the original volume (5 mL) with water. This provided a translucent solution of PTX non-covalently associated with PEG-HCCs (PTX/PEG-HCCs). […] In other words, it is visually apparent if PTX is precipitating because the solution becomes a milky white color when the PTX is overloaded. Applicants have observed that the maximum loading concentration of PTX in the PEG-HCCs in the experiments performed to date is about 12 mg/mL.

[2] = tested on: bEnd.3 cells; assay: Antimycin A induced oxidative stress in bEnd.3 cells, DHE flow cytometry (Example 13.1); assay type: cell-based; conditions: treatment after Antimycin A
Experimental: Mean fluorescence intensity (indicative of oxidative stress) was measured using as control viable cells of 4 separated experiments treated with Antimycin A (AntA) and stained with dihydroethidine (DHE) (“AntA+DHE”). Results are given as % control (unstained cells) to account for minor differences in DHE concentrations and laser fluctuations.
Accordingly, the next series of experiments employed flow cytometry to assess antioxidant effectiveness of PEG-HCCs and targeted PEG-HCCs in cultured brain endothelial cells (b.End3 cells). For these experiments, bEnd.3 cells were cultured to 50-80% confluence in 6 well plates in 2 mL of culture media. The cells were treated with 10 μL of 2 mM Antimycin A (AntA, shown to induce intracellular superoxide radical production). Five minutes later, 1×PBS, PEG-HCC, psPEG-HCC or super oxide dismutase (SOD) was added. The cells were then incubated at 37° C. for 5 minutes. At that time, either 2 μL of 10 mM DHE or a 50% DMSO solution in 1×PBS (control) was added to the wells. The cells were then incubated for another 30 minutes. Next, the cells were placed on ice, trypsinized, and washed twice. The cells were then, counted and stained with SytoxRed (viability stain). 10,000 cells were analyzed per treatment group using the TXRED channel (DHE) and SytoxRed to assess cell viability.

Structure (SMILES)	solubility in water [1]	level of oxidative stress (DHE mean fluorescence intensity) [2]
CC(=O)O[C@H]1C(=O)[C@@]2(C)[C@H]([C@H](OC(=O)c3ccccc3)[C@]3(O)C[C@H](OC(=O)[C@H](O)[C@@H](NC(=O)c4ccccc4)c4ccccc4)C(C)=C1C3(C)C)[C@]1(OC(C)=O)CO[C@@H]1C[C@@H]2O [PTX, Paclitaxel]	insoluble in water	–
Cc1c(C)c2c(c(C)c1O)CCC(C)(C(=O)O)O2 (centres unmarked) [Trolox]	–	not effective

Source: patent US8916606B2, “Therapeutic compositions and methods for targeted delivery of active agents” (William Marsh Rice University, priority 2009, dated 2014)
